PubChem BioAssay (NCI)
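Tested at 5 concentrations; 48 h exposure; 96-well plates; endpoints linearly interpolated, else capped at highest concentration. GI50: concentration for 50% inhibition of growth. The concentration for full growth arrest is given as TGI.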

Tests used:
Assay in all cases: growth of human tumour cells (NCI), 48 h
HL-60(TB) leukemia = tested on: HL-60(TB) leukemia
OVCAR-4 ovarian = tested on: OVCAR-4 ovarian
CCRF-CEM leukemia = tested on: CCRF-CEM leukemia
SN12C renal = tested on: SN12C renal
DU-145 prostate = tested on: DU-145 prostate
SK-MEL-5 melanoma = tested on: SK-MEL-5 melanoma
NCI-H522 lung = tested on: NCI-H522 lung
786-0 renal = tested on: 786-0 renal
PC-3 prostate = tested on: PC-3 prostate
SF-539 CNS = tested on: SF-539 CNS
NCI-H23 lung = tested on: NCI-H23 lung
OVCAR-3 ovarian = tested on: OVCAR-3 ovarian
UACC-62 melanoma = tested on: UACC-62 melanoma
U251 CNS = tested on: U251 CNS
HCC-2998 colon = tested on: HCC-2998 colon
SNB-19 CNS = tested on: SNB-19 CNS
TK-10 renal = tested on: TK-10 renal
UACC-257 melanoma = tested on: UACC-257 melanoma
MALME-3M melanoma = tested on: MALME-3M melanoma
NCI-H460 lung = tested on: NCI-H460 lung
CAKI-1 renal = tested on: CAKI-1 renal
OVCAR-5 ovarian = tested on: OVCAR-5 ovarian
MCF7 breast = tested on: MCF7 breast
SNB-75 CNS = tested on: SNB-75 CNS
UO-31 renal = tested on: UO-31 renal
KM12 colon = tested on: KM12 colon
T-47D breast = tested on: T-47D breast
RPMI-8226 leukemia = tested on: RPMI-8226 leukemia
HOP-62 NSCLC = tested on: HOP-62 NSCLC
EKVX NSCLC = tested on: EKVX NSCLC
SK-MEL-28 melanoma = tested on: SK-MEL-28 melanoma
A498 renal = tested on: A498 renal
COLO 205 colon = tested on: COLO 205 colon
MDA-MB-231 breast = tested on: MDA-MB-231 breast
LOX IMVI melanoma = tested on: LOX IMVI melanoma
HS 578T breast = tested on: HS 578T breast
NCI/ADR-RES ovarian = tested on: NCI/ADR-RES ovarian
OVCAR-8 ovarian = tested on: OVCAR-8 ovarian
RXF 393 renal = tested on: RXF 393 renal
NCI-H226 lung = tested on: NCI-H226 lung
SW-620 colon = tested on: SW-620 colon
SF-268 CNS = tested on: SF-268 CNS
IGROV1 ovarian = tested on: IGROV1 ovarian
K-562 leukemia = tested on: K-562 leukemia
SF-295 CNS = tested on: SF-295 CNS
HOP-92 NSCLC = tested on: HOP-92 NSCLC
ACHN renal = tested on: ACHN renal
HT29 colon = tested on: HT29 colon
SK-OV-3 ovarian = tested on: SK-OV-3 ovarian
MDA-MB-435 = tested on: MDA-MB-435
M14 melanoma = tested on: M14 melanoma
BT-549 breast = tested on: BT-549 breast
A549 NSCLC = tested on: A549 NSCLC
HCT-15 colon = tested on: HCT-15 colon
SK-MEL-2 melanoma = tested on: SK-MEL-2 melanoma
MOLT-4 leukemia = tested on: MOLT-4 leukemia
SR leukemia = tested on: SR leukemia
HCT-116 colon = tested on: HCT-116 colon
MDA-N = tested on: MDA-N

In the case of `O=C(/C=C/c1ccccc1)c1c[nH]c2ccccc2c1=O`, the GI50 (HL-60(TB) leukemia) is reported as 2.81 µM, the TGI (HL-60(TB) leukemia) is reported as 10.6 µM and the GI50 (OVCAR-4 ovarian) is reported as 4.88 µM. It also gave a TGI (OVCAR-4 ovarian) of 23.5 µM, a GI50 (CCRF-CEM leukemia) of 2.88 µM and a TGI (CCRF-CEM leukemia) of 9.97 µM. For the same compound, the GI50 (SN12C renal) was 3.54 µM, the TGI (SN12C renal) was 15.5 µM and the GI50 (DU-145 prostate) was 1.57 µM. It also gave a TGI (DU-145 prostate) of 6.34 µM, a GI50 (SK-MEL-5 melanoma) of 4.8 µM and a TGI (SK-MEL-5 melanoma) of 17 µM. It also gave a GI50 (NCI-H522 lung) of 1.88 µM, a TGI (NCI-H522 lung) of 4.85 µM and a GI50 (786-0 renal) of 4.01 µM. The TGI (786-0 renal) was 17.2 µM, the GI50 (PC-3 prostate) was 5.63 µM and the TGI (PC-3 prostate) was 33.1 µM. For the same compound, the GI50 (SF-539 CNS) was 2.55 µM, the TGI (SF-539 CNS) was 8.81 µM and the GI50 (NCI-H23 lung) was 3.17 µM. It also gave a TGI (NCI-H23 lung) of 15.2 µM, a GI50 (OVCAR-3 ovarian) of 2.03 µM and a TGI (OVCAR-3 ovarian) of 4.37 µM. The GI50 (UACC-62 melanoma) was 5.09 µM, the TGI (UACC-62 melanoma) was 18.2 µM and the GI50 (U251 CNS) was 2.29 µM. The TGI (U251 CNS) was 11 µM, the GI50 (HCC-2998 colon) was 2.85 µM and the TGI (HCC-2998 colon) was 9.48 µM. The GI50 (SNB-19 CNS) was 4.68 µM, the TGI (SNB-19 CNS) was 20.5 µM and the GI50 (TK-10 renal) was 2.08 µM. It also gave a TGI (TK-10 renal) of 5.37 µM, a GI50 (UACC-257 melanoma) of 3.56 µM and a TGI (UACC-257 melanoma) of 15.1 µM. The GI50 (MALME-3M melanoma) was 8.81 µM, the TGI (MALME-3M melanoma) was 27.1 µM and the GI50 (NCI-H460 lung) was 2.06 µM. For the same compound, the TGI (NCI-H460 lung) was 5.09 µM, the GI50 (CAKI-1 renal) was 1.97 µM and the TGI (CAKI-1 renal) was 6.22 µM. For the same compound, the GI50 (OVCAR-5 ovarian) was 3.87 µM, the TGI (OVCAR-5 ovarian) was 17 µM and the GI50 (MCF7 breast) was 2.33 µM. It also gave a TGI (MCF7 breast) of 12.6 µM, a GI50 (SNB-75 CNS) of 3.1 µM and a TGI (SNB-75 CNS) of 12 µM. It also gave a GI50 (UO-31 renal) of 3.26 µM, a TGI (UO-31 renal) of 14.7 µM and a GI50 (KM12 colon) of 3.37 µM. For the same compound, the TGI (KM12 colon) was 11 µM, the GI50 (T-47D breast) was 3.05 µM and the TGI (T-47D breast) was 17.1 µM. It also gave a GI50 (RPMI-8226 leukemia) of 2.23 µM, a TGI (RPMI-8226 leukemia) of 7.62 µM and a GI50 (HOP-62 NSCLC) of 3.5 µM. For the same compound, the TGI (HOP-62 NSCLC) was 12.2 µM, the GI50 (EKVX NSCLC) was 3.95 µM and the TGI (EKVX NSCLC) was 20.1 µM. The GI50 (SK-MEL-28 melanoma) was 6.53 µM, the TGI (SK-MEL-28 melanoma) was 19.4 µM and the GI50 (A498 renal) was 2.3 µM. The TGI (A498 renal) was 10.3 µM, the GI50 (COLO 205 colon) was 2.39 µM and the TGI (COLO 205 colon) was 4.68 µM. For the same compound, the GI50 (MDA-MB-231 breast) was 4.22 µM, the TGI (MDA-MB-231 breast) was 18.7 µM and the GI50 (LOX IMVI melanoma) was 2.88 µM. It also gave a TGI (LOX IMVI melanoma) of 12 µM, a GI50 (HS 578T breast) of 2.32 µM and a TGI (HS 578T breast) of 6.34 µM. The GI50 (NCI/ADR-RES ovarian) was 2.93 µM, the TGI (NCI/ADR-RES ovarian) was 13 µM and the GI50 (OVCAR-8 ovarian) was 2.23 µM. For the same compound, the TGI (OVCAR-8 ovarian) was 6.82 µM, the GI50 (RXF 393 renal) was 3.05 µM and the TGI (RXF 393 renal) was 11.5 µM. It also gave a GI50 (NCI-H226 lung) of 4.81 µM, a TGI (NCI-H226 lung) of 17.3 µM and a GI50 (SW-620 colon) of 2.76 µM. It also gave a TGI (SW-620 colon) of 10 µM, a GI50 (SF-268 CNS) of 2.81 µM and a TGI (SF-268 CNS) of 10.3 µM. The GI50 (IGROV1 ovarian) was 3.67 µM, the TGI (IGROV1 ovarian) was 16.4 µM and the GI50 (K-562 leukemia) was 2.74 µM. For the same compound, the TGI (K-562 leukemia) was 54.8 µM, the GI50 (SF-295 CNS) was 2.31 µM and the TGI (SF-295 CNS) was 7.18 µM. The GI50 (HOP-92 NSCLC) was 3.9 µM, the TGI (HOP-92 NSCLC) was 13 µM and the GI50 (ACHN renal) was 3.01 µM. The TGI (ACHN renal) was 11.7 µM, the GI50 (HT29 colon) was 3.15 µM and the TGI (HT29 colon) was 10.6 µM. For the same compound, the GI50 (SK-OV-3 ovarian) was 2.53 µM, the TGI (SK-OV-3 ovarian) was 6.82 µM and the GI50 (MDA-MB-435) was 3.17 µM. The TGI (MDA-MB-435) was 13.8 µM, the GI50 (M14 melanoma) was 3.49 µM and the TGI (M14 melanoma) was 11.6 µM. The GI50 (BT-549 breast) was 4.84 µM, the TGI (BT-549 breast) was 17.8 µM and the GI50 (A549 NSCLC) was 2.35 µM. It also gave a TGI (A549 NSCLC) of 10.3 µM, a GI50 (HCT-15 colon) of 2.08 µM and a TGI (HCT-15 colon) of 13.2 µM. It also gave a GI50 (SK-MEL-2 melanoma) of 2.42 µM, a TGI (SK-MEL-2 melanoma) of 5.72 µM and a GI50 (MOLT-4 leukemia) of 3.16 µM. For the same compound, the TGI (MOLT-4 leukemia) was 20.8 µM, the GI50 (SR leukemia) was 2.62 µM and the TGI (SR leukemia) was > 100 µM. For the same compound, the GI50 (HCT-116 colon) was 3.11 µM and the TGI (HCT-116 colon) was 12.1 µM.
`COC(=O)CCC1(C)C2CCC1(C)/C(=N/O)C2` (stereo not drawn) was tested, and the TGI (OVCAR-4 ovarian) was > 100 µM, the TGI (CCRF-CEM leukemia) was > 100 µM and the TGI (SN12C renal) was > 100 µM. For the same compound, the TGI (DU-145 prostate) was > 100 µM, the TGI (SK-MEL-5 melanoma) was > 100 µM and the TGI (NCI-H522 lung) was > 100 µM. For the same compound, the TGI (786-0 renal) was > 100 µM, the TGI (PC-3 prostate) was > 100 µM and the TGI (NCI-H23 lung) was > 100 µM. For the same compound, the TGI (OVCAR-3 ovarian) was > 100 µM, the TGI (UACC-62 melanoma) was > 100 µM and the TGI (U251 CNS) was > 100 µM. For the same compound, the TGI (HCC-2998 colon) was > 100 µM, the TGI (SNB-19 CNS) was > 100 µM and the TGI (TK-10 renal) was > 100 µM. The TGI (UACC-257 melanoma) was > 100 µM, the TGI (MALME-3M melanoma) was > 100 µM and the TGI (CAKI-1 renal) was > 100 µM. For the same compound, the TGI (OVCAR-5 ovarian) was > 100 µM, the TGI (MCF7 breast) was > 100 µM and the TGI (SNB-75 CNS) was > 100 µM. For the same compound, the TGI (UO-31 renal) was > 100 µM, the TGI (KM12 colon) was > 100 µM and the TGI (MDA-N) was > 100 µM. The TGI (T-47D breast) was > 100 µM, the TGI (RPMI-8226 leukemia) was > 100 µM and the TGI (HOP-62 NSCLC) was > 100 µM. For the same compound, the TGI (EKVX NSCLC) was > 100 µM, the TGI (SK-MEL-28 melanoma) was > 100 µM and the TGI (COLO 205 colon) was > 100 µM. The TGI (MDA-MB-231 breast) was > 100 µM, the TGI (HS 578T breast) was > 100 µM and the TGI (NCI/ADR-RES ovarian) was > 100 µM. The TGI (OVCAR-8 ovarian) was > 100 µM, the TGI (RXF 393 renal) was > 100 µM and the TGI (NCI-H226 lung) was > 100 µM. For the same compound, the TGI (SW-620 colon) was > 100 µM, the TGI (SF-268 CNS) was > 100 µM and the TGI (IGROV1 ovarian) was > 100 µM. The TGI (K-562 leukemia) was > 100 µM, the TGI (SF-295 CNS) was > 100 µM and the TGI (ACHN renal) was > 100 µM. For the same compound, the TGI (HT29 colon) was > 100 µM, the TGI (SK-OV-3 ovarian) was > 100 µM and the TGI (MDA-MB-435) was > 100 µM. For the same compound, the TGI (M14 melanoma) was > 100 µM, the TGI (BT-549 breast) was > 100 µM and the TGI (A549 NSCLC) was > 100 µM. The TGI (HCT-15 colon) was > 100 µM, the TGI (SK-MEL-2 melanoma) was > 100 µM and the TGI (MOLT-4 leukemia) was > 100 µM. For the same compound, the TGI (HCT-116 colon) was > 100 µM.
